Data as given in US11166930B2, “Isotopically modified components and therapeutic uses thereof” (RETROTOPE, INC., priority 2016, dated 2021).

How the values were obtained:
[1] = biological target: COX1 (Homo sapiens, UniProt P23219); details: compared with other types of deuterated arachidonic acid; unmodified arachidonic acid as control
Experimental: The effect of a high level of isotopically modified polyunsaturated lipid (e.g. arachidonic acids having deuterium at bis-allylic sites) on the enzymatic activity of cyclooxygenase (COX) was examined in vitro. The COX1 activity was measured by oxygen consumption (Clark electrode) in vitro. […] Arachidonic acid with no deuterium modification was used as a control.

[2] = test system: Aldh2−/− mice; details: Aldh2−/− mice as well as APP/PS1 and 3×Tg transgenic mice; cited from earlier work

Chain of COX1 (P23219 24-599): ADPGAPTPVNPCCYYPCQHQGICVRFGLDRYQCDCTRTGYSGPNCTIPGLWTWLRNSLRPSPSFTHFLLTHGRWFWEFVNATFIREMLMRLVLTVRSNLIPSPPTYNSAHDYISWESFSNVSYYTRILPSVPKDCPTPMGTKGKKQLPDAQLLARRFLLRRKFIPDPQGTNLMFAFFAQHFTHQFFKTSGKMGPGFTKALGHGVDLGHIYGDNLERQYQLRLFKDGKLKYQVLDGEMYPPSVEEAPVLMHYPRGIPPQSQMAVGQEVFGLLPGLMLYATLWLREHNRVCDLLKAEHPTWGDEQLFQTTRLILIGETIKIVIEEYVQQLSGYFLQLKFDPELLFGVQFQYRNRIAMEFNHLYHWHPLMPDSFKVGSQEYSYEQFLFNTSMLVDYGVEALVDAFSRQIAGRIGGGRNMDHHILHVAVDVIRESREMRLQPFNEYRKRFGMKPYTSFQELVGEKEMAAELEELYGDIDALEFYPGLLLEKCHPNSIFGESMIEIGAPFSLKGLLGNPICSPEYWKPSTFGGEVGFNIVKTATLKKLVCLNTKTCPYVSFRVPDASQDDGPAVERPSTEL

SMILES	reduction of COX1 activity [1]	memory [2]
[2H]C([2H])(/C=C\C/C=C\C/C=C\CCCC(=O)O)/C=C\CCCCC [13,13-D2-arachidonic acid]	most effective in reducing the activity of COX1	–
Cc1ncsc1CCO[N+](=O)[O-].Cl [NMZ, 4-methyl-5-(2-(nitrooxy)ethyl)thiazol-3-ium chloride]	–	memory can be improved
